This note sets out measurements from patent publication US20160024051A1, “SALTS AND SOLID FORMS OF ISOQUINOLINONES AND COMPOSITION COMPRISING AND METHODS OF USING THE SAME” (INFINITY PHARMACEUTICALS, INC., priority 2013, published 2016).

The nature of data set [1]: PK evaluation in CD-1 mouse. The class given is in vivo. The protocol: (§1) For example, Compound 1 bis-hydrogen sulfate monohydrate was evaluated in CD-1 mouse, Wistar rat, Cyno monkey, and Beagle dog. Cross species allometric scaling of CL (drug clearance) and Vss (volume at steady state) predicts low CL, high Vss and long T112 for Compound 1 in humans.
Data set [2] in a line: PK evaluation in Wistar rat. In kind it is in vivo. As to the method: as §1
Data set [3] can be described thus: PK evaluation in Cyno monkey. The class given is in vivo. As to the method: as §1
A short description of data set [4]: PK evaluation in Beagle dog. The class given is in vivo. The protocol:
as §1

A short description of data set [5]: Storage at 25° C./93% RH for 1 week, re-analysis by XRPD/HPLC. The class given is physicochemical. The settings on record: for Stability at 25° C./93% RH: after 1 week, XRPD.
Data set [6] can be described thus: Gravimetric vapour sorption (GVS). In kind it is physicochemical. As to the method: Sorption isotherms were obtained using a Hiden IGASorp moisture sorption analyser, controlled by CFRSorp software. The sample temperature was maintained at 25° C. by a Huber re-circulating water bath. The humidity was controlled by mixing streams of dry and wet nitrogen, with a total flow rate of 250 ml/min. The relative humidity (RH) was measured by a calibrated Vaisala RH probe (dynamic range of 0-95% RH), located near the sample. The weight change, (mass relaxation) of the sample as a function of % RH was constantly monitored by the microbalance (accuracy ±0.001 mg). Typically 10-20 mg of sample was placed in a tared mesh stainless steel basket under ambient conditions. The sample was loaded and unloaded at 40% RH and 25° C. (typical room conditions). A moisture sorption isotherm was performed as outlined below (2 scans giving 1 complete cycle). The standard isotherm was performed at 25° C. at 10% RH intervals over a 0-90% RH range.
The software uses a least squares minimisation procedure together with a model of the mass relaxation, to predict an asymptotic value. The measured mass relaxation value must be within 5% of that predicted by the software, before the next % RH value is selected. The minimum equilibration time was set to 1 hour and the maximum to 4 hours. The sample was recovered after completion of the isotherm and re-analysed by XRPD.

A short description of data set [7]: Thermodynamic aqueous solubility. The class given is physicochemical.
Data set [8] in a line: Storage at 40° C./75% RH (elevated humidity) for 1 week, re-analysis by XRPD/HPLC. The following applies: for Stability at 40° C./75% RH: after 1 week, XRPD.
Experimental: The crystalline solids were filtered, dried at ambient conditions, and stored at 40° C./75% RH for 1 week and analyzed by ^1H NMR/IC.
(§2) Samples from the screen using amorphous free base Compound 1 were analysed by ^1H-NMR and DSC, and re-analysis by XRPD was also carried out after drying at 50° C./vacuum and storage at 40° C./75% RH (the same sample was dried and stored at elevated humidity).
Data set [9] in a line: Stability of Hydrate Form 2: maturation in water or acetic acid: water 1:3 at constant temperature. The class given is physicochemical. The settings on record: 40 hours maturation. The protocol: Both solids obtained from maturation at 25° C.
Data set [10] can be described thus: Drying at 50° C./vacuum, re-analysis by XRPD. In kind it is physicochemical.
Experimental: as §2
Data set [11] in a line: Polymorphism study: maturation (temperature cycling RT to 50° C.) in solvents, XRPD. In kind it is physicochemical. The following applies: three days; listed as amorphous material. As to the method:
One of 21 solvents was added to each vial in a number of aliquots (up to 30 volumes), with shaking. All the samples were then placed under maturation between RT to 50° C. (4 hours at each temperature) for 3 days. After maturation the samples were analysed by XRPD. Clear solutions were cooled to −20° C. (freezer). If no precipitation occurred samples were evaporated at RT.
Samples were placed under maturation between RT-50° C. (4 hours cycle) for 3 days. After maturation the samples were analyzed by XRPD. Clear solutions were then cooled to −20° C. (freezer). If no precipitation occurred, samples were evaporated at RT.
The corresponding solvents and solvent mixtures were added in portions of (a total of) 5, 10, 20, and 30 volumes at 50° C., with shaking, aiming for clear solutions. After each addition, the vials were allowed to shake for 20 minutes, after which observations were made. Solutions were allowed to evaporate, whereas slurries were set for 8 hour temperature cycling maturation, between RT and 50° C., for 5 days.
The oils obtained by solvent evaporation were used for the maturation screen. Anhydrous solvents (5 volumes; 100 μL) were used in order to minimise the amount of water present. Any solutions were allowed to slowly evaporate, whereas slurries were set for 8 hour temperature cycling maturation, between RT and 50° C. […] These were matured for a further 24 hours before performing XRPD analysis.
The selected solvents and solvent mixtures (5 to 20 volumes) were added with stirring. Any solutions were allowed to slowly evaporate, whereas slurries were set for 8 hour temperature cycling maturation, between RT and 50° C., for 2 days.
Crystals were ground in order to analyse them by XRPD. Suspensions were set for temperature cycling for a total of five days after which time XRPD analysis was carried out.

As usually defined, the Cmax is the maximum level reached in the sampled fluid or tissue. By Vss is commonly meant the apparent volume that relates the amount in the body to the concentration in plasma or blood. Usually Tmax stands for the time from dosing to the highest level. Turning to `COc1cc(-c2cccc3cc([C@H](C)Nc4nc(N)ncc4C#N)n(-c4ccccc4)c(=O)c23)ccn1.O.O=S(=O)(O)O.O=S(=O)(O)O`, the AUClast was 1012 ng·h/mL in data set [1] (IV, 5 mg/kg); 856 ng·h/mL in data set [1] (PO, 10 mg/kg); 2061 ng·h/mL in [2] (IV, 2 mg/kg); 5968 ng·h/mL in data set [2] (PO, 10 mg/kg); 2534 ng·h/mL in data set [3] (IV, 1 mg/kg); 12790 ng·h/mL in data set [3] (PO, 5 mg/kg). Moreover, the AUClast in data set [4] (IV, 1 mg/kg) came to 4746 ng·h/mL; in data set [4] (PO, 5 mg/kg) it was 17626 ng·h/mL. Moreover, the Cl was 82 mL/min/kg in data set [1] (IV, 5 mg/kg); 17 mL/min/kg in [2] (IV, 2 mg/kg); 6.5 mL/min/kg in data set [3] (IV, 1 mg/kg); 2.5 mL/min/kg in [4] (IV, 1 mg/kg). Besides, the highest concentration (Cmax) is on record as 1417 ng/mL in data set [1] (IV, 5 mg/kg); 647 ng/mL in data set [1] (PO, 10 mg/kg); 799 ng/mL in [2] (IV, 2 mg/kg); 787 ng/mL in [2] (PO, 10 mg/kg); 581 ng/mL in [3] (IV, 1 mg/kg); 2365 ng/mL in data set [3] (PO, 5 mg/kg). The Cmax in [4] (IV, 1 mg/kg) came out at 424 ng/mL; in data set [4] (PO, 5 mg/kg) it was 1830 ng/mL. In addition, the T1/2 stood at 0.6 h in data set [1] (IV, 5 mg/kg); 1.7 h in data set [1] (PO, 10 mg/kg); 2.3 h in data set [2] (IV, 2 mg/kg); 3.3 h in data set [2] (PO, 10 mg/kg); 4.1 h in data set [3] (IV, 1 mg/kg); 4.0 h in data set [3] (PO, 5 mg/kg). The T1/2 came to 14.6 h in [4] (IV, 1 mg/kg) and 8.0 h in data set [4] (PO, 5 mg/kg). Further, the distribution volume (Vss) in data set [1] (IV, 5 mg/kg) came to 2.3 L/kg; in [2] (IV, 2 mg/kg) it was 2.4 L/kg; in [3] (IV, 1 mg/kg), 1.6 L/kg; in data set [4] (IV, 1 mg/kg), 2.9 L/kg. The Foral in data set [1] (PO, 10 mg/kg) came to 45%; in [2] (PO, 10 mg/kg), 58%; in [3] (PO, 5 mg/kg), 100%; in data set [4] (PO, 5 mg/kg), 74%. In addition, the time of peak concentration (Tmax) is 0.25 h in data set [1] (PO, 10 mg/kg); 1.3 h in data set [2] (PO, 10 mg/kg); 2 h in data set [3] (PO, 5 mg/kg); 2.3 h in data set [4] (PO, 5 mg/kg).
For the molecule `COc1cc(-c2cccc3cc([C@H](C)Nc4nc(N)ncc4C#N)n(-c4ccccc4)c(=O)c23)ccn1`, in [5] (salts scaled-up at 0.5 gram), the “Storage 25° C./93% RH for 1 week: HPLC Purity” value is “HPLC Purity: Unchanged” and the “Storage 25° C./93% RH for 1 week: XRPD (D8)” value is given as “XRPD (D8): Unchanged”. Also, the “XRPD post GVS (C2)” value in data set [6] is recorded as “Unchanged”. For the same molecule, the “GVS Single cycle” value in [6] (hygroscopicity in words, 25° C., listed as 1-2-Ethanedisulfonic acid) is listed as “Moderately hygroscopic”. Further, in [7] (residual solid), the “XRPD (C2) post Aqueous solubility” value is given as “Low cryst. 1,2-ethanedisulfonic”. The “Thermodynamic aqueous solubility” value in data set [7] (salts scaled-up at 0.5 gram, listed as 1-2-Ethanedisulfonic acid) came out at 6200 µg/mL. For the same molecule, in data set [8] (salts scaled-up at 0.5 gram), the “Storage 40° C./75% RH for 1 week: HPLC Purity” value is reported as “HPLC Purity: Unchanged” and the “Storage 40° C./75% RH for 1 week: XRPD (D8)” value is listed as “XRPD (D8): Unchanged”.
On to `CC(=O)O.COc1cc(-c2cccc3cc([C@H](C)Nc4nc(N)ncc4C#N)n(-c4ccccc4)c(=O)c23)ccn1.COc1cc(-c2cccc3cc([C@H](C)Nc4nc(N)ncc4C#N)n(-c4ccccc4)c(=O)c23)ccn1` [Batch 2 of Form 6], for which the “Stability at 25° C./93% RH” value in [5] is recorded as “Very slight changes”. In [8], the “Stability at 40° C./75% RH” value is listed as “Very slight changes”.
Regarding `COc1cc(-c2cccc3cc([C@H](C)Nc4nc(N)ncc4C#N)n(-c4ccccc4)c(=O)c23)ccn1.O` [Form 2 of free base of Compound 1], the XRPD result in data set [9] (Acetic acid:water 1:3, 25° C.) is recorded as “Hydrate Form 2”; in data set [9] (Water, 25° C.) it was “Hydrate Form 2”; in data set [9] (Water, 90° C.) it was “Hydrate Form 2”.
On to `COc1cc(-c2cccc3cc([C@H](C)Nc4nc(N)ncc4C#N)n(-c4ccccc4)c(=O)c23)ccn1` [Form 4 of the free base of Compound 1], for which the “GVS behaviour (hydration / desolvation)” value in data set [6] (text statements, listed as Form 4) is recorded as “hydrates above 80% RH, but reversibly dehydrates back at 40% RH”. In addition, the “XRPD after drying at 50° C./vacuum” value in data set [10] (screening sample from H2O) is recorded as “No changes”. In addition, the “XRPD after Storage at 40° C./75% RH” value in [8] (screening sample from H2O, after drying) is “No changes”.
Consider `COc1cc(-c2cccc3cc([C@H](C)Nc4nc(N)ncc4C#N)n(-c4ccccc4)c(=O)c23)ccn1` [Form 5 of the free base of Compound 1], for which the “XRPD after drying at 50° C./vacuum” value in data set [10] (screening sample from 2-MeTHF), in [10] (screening sample from Acetone), in data set [10] (screening sample from Acetonitrile), in data set [10] (screening sample from DCM), in data set [10] (screening sample from DCM:MeOH 1:1) and in [10] (screening sample from DME) was “No changes” throughout. Moreover, the “XRPD after drying at 50° C./vacuum” value in data set [10] (screening sample from EtOAc), in data set [10] (screening sample from EtOH), in data set [10] (screening sample from EtOH/5% water), in data set [10] (screening sample from IPA), in [10] (screening sample from MIBK) and in [10] (screening sample from MeCN/5% water) was “No changes” throughout. Besides, the “XRPD after drying at 50° C./vacuum” value in data set [10] (screening sample from MeOH), in data set [10] (screening sample from TBME), in data set [10] (screening sample from THF) and in data set [10] (screening sample from THF/5% water) was “No changes” in each case. Also, the “XRPD after Storage at 40° C./75% RH” value in [8] (screening sample from 2-MeTHF, after drying) was “No changes”; in data set [8] (screening sample from Acetone, after drying), “No changes”; in data set [8] (screening sample from Acetonitrile, after drying), “No changes; NMR”; in [8] (screening sample from DCM, after drying), “No changes”; in data set [8] (screening sample from DCM:MeOH 1:1, after drying), “No changes”; in data set [8] (screening sample from DME, after drying), “No changes”. In addition, the “XRPD after Storage at 40° C./75% RH” value in [8] (screening sample from EtOAc, after drying) is on record as “No changes”; in data set [8] (screening sample from EtOH, after drying), “No changes”; in [8] (screening sample from EtOH/5% water, after drying) it was “No changes”; in data set [8] (screening sample from IPA, after drying), “No changes”; in [8] (screening sample from MIBK, after drying) it was “No changes”; in [8] (screening sample from MeCN/5% water, after drying), “No changes”. The “XRPD after Storage at 40° C./75% RH” value is “No changes” in [8] (screening sample from MeOH, after drying); “No changes” in [8] (screening sample from TBME, after drying); “No changes; NMR” in data set [8] (screening sample from THF, after drying); “No changes” in data set [8] (screening sample from THF/5% water, after drying).
For `COc1cc(-c2cccc3cc([C@H](C)Nc4nc(N)ncc4C#N)n(-c4ccccc4)c(=O)c23)ccn1` [amorphous free base of Compound 1], in data set [5], the “Stability at 25° C./93% RH” value is listed as “No changes after 1 week”. For the same molecule, the “XRPD form after maturation in acetic acid: water 1:1” value in data set [11] was “Form 6”. Besides, in [8], the “Stability at 40° C./75% RH” value is recorded as “No changes after 1 week”. Further, the “solid form after storage at elevated humidity” value in data set [8] (elevated humidity conditions, not specified in the sentence) is on record as “No crystallisation”.
